The values that follow come from patent US20260217672A1, “BENZAMIDE COMPOUNDS FOR TREATMENT OF BACTERIAL INFECTIONS” (Hoffmann-La Roche Inc., priority 2022, published 2026).

Experiment [1] concerns Klebsiella pneumonia ATCC 43816. Nature of the experiment: Minimal Inhibitory Concentration (MIC) broth dilution assay. Particulars: Klebsiella pneumoniae, read-out: MIC Klebsiella pneumoniae ATCC43816. It is filed as cell-based. In short, it runs like this:
(§1)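 Broth dilution MIC in cation-adjusted Mueller Hinton broth, final inoculum 5×10^5 CFU/mL, serial 2-fold compound dilutions from DMSO stocks. Plates incubated 20 hours at 35° C. in ambient air; MIC read visually as lowest concentration inhibiting visible growth.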

Experiment [2] relates to Escherichia coli ATCC 25922. The description is as above. The class given is cell-based. The conditions noted are these: read-out: MIC Escherichia coli ATCC 25922. Put shortly: as §1

Converted amounts (≈) assume the structure as drawn. Read-outs that look alike come from different tables or passages of the source.

Turning to `O=C(Nc1ccc(S(=O)(=O)N2CCN(c3cc(C(F)(F)F)cc(Cl)n3)CC2)cc1)c1ccc(CCN2C3CNCC2C3)cc1` [Example 075, N-[4-[4-[6-chloro-4-(trifluoromethyl)-2-pyridyl]piperazin-1-yl]sulfonylphenyl]-4-[2-(3,6-diazabicyclo[3.1.1]heptan-6-yl)ethyl]benzamide], the MIC was determined as 5.5 µg/mL (≈ 8.47 µM) in experiment [1] (ATCC43816, broth dilution in CAMHB, 5×10^5 CFU/mL, 20 hours at 35° C.) and 2.7 µg/mL (≈ 4.16 µM) in experiment [2] (ATCC25922, broth dilution in CAMHB, 5×10^5 CFU/mL, 20 hours at 35° C.).
As for `O=C(CN1CCNCC1)Nc1ccc(S(=O)(=O)N2CCN(c3cc(C(F)(F)F)cc(Cl)n3)CC2)cc1` [Example 040, N-[4-[4-[6-chloro-4-(trifluoromethyl)-2-pyridyl]piperazin-1-yl]sulfonylphenyl]-2-piperazin-1-yl-acetamide], the MIC in experiment [1] (ATCC43816, 20 h) came to 8.3 µg/mL (≈ 15.2 µM); in experiment [2] (ATCC25922, 20 h) it was 2.1 µg/mL (≈ 3.84 µM).
`CC1CN(S(=O)(=O)c2ccc(NC(=O)c3cccc(CNCCCN)c3)cc2)CCN1c1cc(C(F)(F)F)cc(Cl)n1` (stereo not shown) [Example 022, 3-[(3-Aminopropylamino)methyl]-N-[4-[4-[6-chloro-4-(trifluoromethyl)-2-pyridyl]-3-methyl-piperazin-1-yl]sulfonylphenyl]benzamide]: the MIC came to 3.9 µg/mL (≈ 6.24 µM) in experiment [1] (ATCC43816, 20 h) and 3.9 µg/mL (≈ 6.24 µM) in experiment [2] (ATCC25922, 20 h).
Consider `NC1CC12CCN(CCc1ccc(C(=O)Nc3ccc(S(=O)(=O)N4CCN(c5cc(C(F)(F)F)cc(Cl)n5)CC4)cc3)cc1)C2` (stereo not shown) [Example 074, 4-[2-(2-Amino-5-azaspiro[2.4]heptan-5-yl)ethyl]-N-[4-[4-[6-chloro-4-(trifluoromethyl)-2-pyridyl]piperazin-1-yl]sulfonylphenyl]benzamide], for which the minimal inhibitory concentration (MIC) in experiment [1] (ATCC43816, 20 h) is 2.8 µg/mL (≈ 4.22 µM); in experiment [2] (ATCC25922, 20 h), 2.8 µg/mL (≈ 4.22 µM).
As to `NC1CCC12CN(CCc1ccc(C(=O)Nc3ccc(S(=O)(=O)N4CCN(c5cc(C(F)(F)F)cc(Cl)n5)CC4)cc3)cc1)C2` (stereo not shown) [Example 070, 4-[2-(7-Amino-2-azaspiro[3.3]heptan-2-yl)ethyl]-N-[4-[4-[6-chloro-4-(trifluoromethyl)-2-pyridyl]piperazin-1-yl]sulfonylphenyl]benzamide], the MIC in experiment [1] (ATCC43816, 20 h) was 2.4 µg/mL (≈ 3.62 µM); in experiment [2] (ATCC25922, 20 h), 1.2 µg/mL (≈ 1.81 µM).
With `Cc1cc(C(F)(F)F)cc(N2CCN(S(=O)(=O)c3ccc(NC(=O)c4cnc5c(c4)CNC5)cc3)CC2)n1` [Example 045, N-[4-[4-[6-methyl-4-(trifluoromethyl)-2-pyridyl]piperazin-1-yl]sulfonylphenyl]-6,7-dihydro-5H-pyrrolo[3,4-b]pyridine-3-carboxamide], the MIC in experiment [1] (ATCC43816, 20 h) was 3.6 µg/mL (≈ 6.59 µM); in experiment [2] (ATCC25922, 20 h), 0.91 µg/mL (≈ 1.66 µM).
As for `COc1ccc(CNCCCC2CCNCC2)cc1C(=O)Nc1ccc(S(=O)(=O)N2CCN(c3cc(C(F)(F)F)cc(Cl)n3)CC2)cc1` [Example 081, N-[4-[4-[6-chloro-4-(trifluoromethyl)-2-pyridyl]piperazin-1-yl]sulfonylphenyl]-2-methoxy-5-[[3-(4-piperidyl)propylamino]methyl]benzamide], the MIC in experiment [1] (ATCC43816, 20 h) turned out to be 2.9 µg/mL (≈ 4.09 µM); in experiment [2] (ATCC25922, 20 h), 1.5 µg/mL (≈ 2.11 µM).
In the case of `NCCC(N)C(=O)Nc1cccc(C(=O)Nc2ccc(S(=O)(=O)N3CCN(c4cc(C(F)(F)F)cc(Cl)n4)CC3)cc2)c1` (stereo not shown) [Example 057, N-[4-[4-[6-chloro-4-(trifluoromethyl)-2-pyridyl]piperazin-1-yl]sulfonylphenyl]-3-(2,4-diaminobutanoylamino)benzamide], the MIC in experiment [1] (ATCC43816, 20 h) worked out at 2 µg/mL (≈ 3.12 µM); in experiment [2] (ATCC25922, 20 h) it was 1 µg/mL (≈ 1.56 µM).
For the molecule `Cn1ncc(C(=O)N2CCc3cc(S(=O)(=O)N4CCN(c5cc(C(F)(F)F)cc(Cl)n5)CC4)ccc32)c1C(=O)O` [Example 035, 4-[5-[4-[6-Chloro-4-(trifluoromethyl)-2-pyridyl]piperazin-1-yl]sulfonylindoline-1-carbonyl]-2-methyl-pyrazole-3-carboxylic acid], the MIC was found to be 7.5 µg/mL (≈ 12.5 µM) in experiment [1] (ATCC43816, 20 h) and 3.7 µg/mL (≈ 6.18 µM) in experiment [2] (ATCC25922, 20 h).
For the molecule `NCCCNCc1ccnc(C(=O)Nc2ccc(S(=O)(=O)N3CCN(c4cc(C(F)(F)F)cc(Cl)n4)CC3)cc2)c1` [Example 058, 4-[(3-Aminopropylamino)methyl]-N-[4-[4-[6-chloro-4-(trifluoromethyl)-2-pyridyl]piperazin-1-yl]sulfonylphenyl]pyridine-2-carboxamide], the MIC came to 3.8 µg/mL (≈ 6.21 µM) in experiment [1] (ATCC43816, 20 h) and 3.8 µg/mL (≈ 6.21 µM) in experiment [2] (ATCC25922, 20 h).
In the case of `NCc1ccc(O)c(C(=O)Nc2ccc(S(=O)(=O)N3CCN(c4cc(C(F)(F)F)cc(Cl)n4)CC3)cc2)c1` [Example 056, 5-(Aminomethyl)-N-[4-[4-[6-chloro-4-(trifluoromethyl)-2-pyridyl]piperazin-1-yl]sulfonylphenyl]-2-hydroxy-benzamide], the MIC in experiment [1] (ATCC43816, 20 h) amounted to 3.8 µg/mL (≈ 6.67 µM); in experiment [2] (ATCC25922, 20 h), 3.8 µg/mL (≈ 6.67 µM).
Turning to `NCCCOc1ccc(C(=O)Nc2ccc(S(=O)(=O)N3CCN(c4cc(C(F)(F)F)cc(Cl)n4)CC3)cc2)cc1OCCCN` [Example 065, 3,4-Bis(3-Aminopropoxy)-N-[4-[4-[6-chloro-4-(trifluoromethyl)-2-pyridyl]piperazin-1-yl]sulfonylphenyl]benzamide], the minimal inhibitory concentration (MIC) in experiment [1] (ATCC43816, 20 h) is 0.52 µg/mL (≈ 0.775 µM); in experiment [2] (ATCC25922, 20 h), 0.26 µg/mL (≈ 0.387 µM).
Regarding `NC1(C2CCN(Cc3cccc(C(=O)Nc4ccc(S(=O)(=O)N5CCN(c6cc(C(F)(F)F)cc(Cl)n6)CC5)cc4)c3)C2)CC1` (stereo not shown) [Example 079, 3-[[3-(1-Aminocyclopropyl)pyrrolidin-1-yl]methyl]-N-[4-[4-[6-chloro-4-(trifluoromethyl)-2-pyridyl]piperazin-1-yl]sulfonylphenyl]benzamide], the MIC in experiment [1] (ATCC43816, 20 h) was 2.2 µg/mL (≈ 3.32 µM); in experiment [2] (ATCC25922, 20 h) it was 1.1 µg/mL (≈ 1.66 µM).
As to `NCCCNCc1ccc(C(=O)Nc2ccc(S(=O)(=O)N3CCN(c4cc(Cl)cc(C(F)(F)F)c4)CC3)cc2)cc1` [Example 004, 4-[(3-Aminopropylamino)methyl]-N-[4-[4-[3-chloro-5-(trifluoromethyl)phenyl]piperazin-1-yl]sulfonylphenyl]benzamide], the minimum inhibitory concentration (MIC) came to 3.8 µg/mL (≈ 6.23 µM) in experiment [1] (ATCC43816, 20 h) and 1.9 µg/mL (≈ 3.11 µM) in experiment [2] (ATCC25922, 20 h).
For the molecule `COc1cc(S(=O)(=O)N2CCN(c3cc(C(F)(F)F)cc(Cl)n3)CC2)ccc1NC(=O)c1cccc(CNCCCN)c1` [Example 030, 3-[(3-Aminopropylamino)methyl]-N-[4-[4-[6-chloro-4-(trifluoromethyl)-2-pyridyl]piperazin-1-yl]sulfonyl-2-methoxy-phenyl]benzamide], the minimal inhibitory concentration (MIC) was 8 µg/mL (≈ 12.5 µM) in experiment [1] (ATCC43816, 20 h) and 4 µg/mL (≈ 6.24 µM) in experiment [2] (ATCC25922, 20 h).
For the molecule `NCCCNCc1cccc(C(=O)Nc2ccc(S(=O)(=O)N3CCN(c4cc(C(F)(F)F)cc(Cl)n4)CC3)c(O)c2)c1` [Example 028, 3-[(3-Aminopropylamino)methyl]-N-[4-[4-[6-chloro-4-(trifluoromethyl)-2-pyridyl]piperazin-1-yl]sulfonyl-3-hydroxy-phenyl]benzamide], the MIC in experiment [1] (ATCC43816, 20 h) came to 9.3 µg/mL (≈ 14.8 µM); in experiment [2] (ATCC25922, 20 h), 4.6 µg/mL (≈ 7.34 µM).
As for `NCCCNCc1cccc(C(=O)Nc2ccc(S(=O)(=O)N3CCN(c4cc(C(F)(F)F)cc(Cl)n4)CC3)cc2)c1` [Example 024, 3-[(3-Aminopropylamino)methyl]-N-[4-[4-[6-chloro-4-(trifluoromethyl)-2-pyridyl]piperazin-1-yl]sulfonylphenyl]benzamide], the minimal inhibitory concentration (MIC) stood at 0.96 µg/mL (≈ 1.57 µM) in experiment [1] (ATCC43816, 20 h) and 0.48 µg/mL (≈ 0.785 µM) in experiment [2] (ATCC25922, 20 h).
In the case of `O=C(Nc1ccc(S(=O)(=O)N2CCN(c3cc(C(F)(F)F)cc(Cl)n3)CC2)cc1)c1cccc(OCC2CNC2)c1` [Example 050, 3-(Azetidin-3-ylmethoxy)-N-[4-[4-[6-chloro-4-(trifluoromethyl)-2-pyridyl]piperazin-1-yl]sulfonylphenyl]benzamide], the MIC in experiment [1] (ATCC43816, 20 h) amounted to 1 µg/mL (≈ 1.64 µM); in experiment [2] (ATCC25922, 20 h), 1 µg/mL (≈ 1.64 µM).
Turning to `O=C1NC(CNCc2cccc(C(=O)Nc3ccc(S(=O)(=O)N4CCN(c5cc(C(F)(F)F)cc(Cl)n5)CC4)cc3)c2)CO1` (stereo not shown) [Example 084, N-[4-[4-[6-chloro-4-(trifluoromethyl)-2-pyridyl]piperazin-1-yl]sulfonylphenyl]-3-[[(2-oxooxazolidin-4-yl)methylamino]methyl]benzamide], the minimum inhibitory concentration (MIC) in experiment [1] (ATCC43816, 20 h) was 4.8 µg/mL (≈ 7.35 µM); in experiment [2] (ATCC25922, 20 h), 4.8 µg/mL (≈ 7.35 µM).
On to `NCCCNCc1ccc(C(=O)Nc2ccc(S(=O)(=O)N3CCN(c4cc(C(F)(F)F)ccn4)CC3)cc2)cc1` [Example 002, 4-[(3-Aminopropylamino)methyl]-N-[4-[4-[4-(trifluoromethyl)-2-pyridyl]piperazin-1-yl]sulfonylphenyl]benzamide], for which the MIC was 5.4 µg/mL (≈ 9.36 µM) in experiment [1] (ATCC43816, 20 h) and 1.8 µg/mL (≈ 3.12 µM) in experiment [2] (ATCC25922, 20 h).
Take `NC1Cc2ccc(C(=O)Nc3ccc(S(=O)(=O)N4CCN(c5cc(C(F)(F)F)cc(Cl)n5)CC4)cc3)cc2C1` (stereo not shown) [Example 055, 2-Amino-N-[4-[4-[6-chloro-4-(trifluoromethyl)-2-pyridyl]piperazin-1-yl]sulfonylphenyl]indane-5-carboxamide]: the minimum inhibitory concentration (MIC) in experiment [1] (ATCC43816, 20 h) came out at 0.91 µg/mL (≈ 1.57 µM); in experiment [2] (ATCC25922, 20 h), 0.45 µg/mL (≈ 0.776 µM).
On to `NCCCNCc1ccc(C(=O)Nc2ccc(S(=O)(=O)N3CCN(c4cc(C(F)(F)F)nc(Cl)n4)CC3)cc2)cc1` [Example 005, 4-[(3-Aminopropylamino)methyl]-N-[4-[4-[2-chloro-6-(trifluoromethyl)pyrimidin-4-yl]piperazin-1-yl]sulfonylphenyl]benzamide], for which the minimal inhibitory concentration (MIC) turned out to be 7.7 µg/mL (≈ 12.6 µM) in experiment [1] (ATCC43816, 20 h) and 1.9 µg/mL (≈ 3.1 µM) in experiment [2] (ATCC25922, 20 h).
As to `COc1ccc(CN2CCC3CN(C)CC32)cc1C(=O)Nc1ccc(S(=O)(=O)N2CCN(c3cc(C(F)(F)F)cc(Cl)n3)CC2)cc1` (stereo not shown) [Example 063, N-[4-[4-[6-chloro-4-(trifluoromethyl)-2-pyridyl]piperazin-1-yl]sulfonylphenyl]-2-methoxy-5-[(5-methyl-2,3,3a,4,6,6a-hexahydropyrrolo[2,3-c]pyrrol-1-yl)methyl]benzamide], the MIC in experiment [1] (ATCC43816, 20 h) turned out to be 4.3 µg/mL (≈ 6.2 µM); in experiment [2] (ATCC25922, 20 h) it was 4.3 µg/mL (≈ 6.2 µM).
